# According to patent US20050239853A1, “New compounds” (priority 2004, published 2005):
# Where a name gives a salt, the structure may show the parent alone.
# Tested on: not given
# Test: not given
# Settings: not given
row,Compound,melting point [°C]
1,"O=C(CC1SC(NC2CCCCC2)=NC1=O)Nc1ccccc1Cl (stereo not drawn) [Example 97, N-(2-Chlorophenyl)-2-[2-(cyclohexylamino)-4-oxo-4,5-dihydro-1,3-thiazol-5-yl]acetamide]",183
2,"O=C(CC1SC(N2CCCCC2)=NC1=O)Nc1ccccc1Cl (stereo not drawn) [Example 98, N-(2-Chlorophenyl)-2-(4-oxo-2-piperidin-1-yl-4,5-dihydro-1,3-thiazol-5-yl)acetamide]",177
3,"O=C(CC1SC(NC2CC3C=CC2C3)=NC1=O)Nc1ccccc1C(=O)c1ccccc1 (stereo not drawn) [Example 102, N-(2-benzoylphenyl)-2-[2-(Bicyclo[2.2.1]hept-5-en-2-ylamino)-4-oxo-4,5-dihydro-1,3-thiazol-5-yl]acetamide]",191 to 192
4,"O=C(CC1SC(NC2CC3C=CC2C3)=NC1=O)Nc1cccc(C(=O)O)c1 (stereo not drawn) [Example 103, 3-({[2-(Bicyclo[2.2.1]hept-5-en-2-ylamino)-4-oxo-4,5-dihydro-1,3-thiazol-5-yl]acetyl}amino)benzoic acid]",242
5,"CN(C(=O)CC1SC(NC2CC3C=CC2C3)=NC1=O)c1ccccc1Cl (stereo not drawn) [Example 107, 2-[2-(Bicyclo[2.2.1]hept-5-en-2-ylamino)-4-oxo-4,5-dihydro-1,3-thiazol-5-yl]-N-(2-chlorophenyl)-N-methylacetamide]",149 to 150
6,"O=C(CC1SC(NC2CC3C=CC2C3)=NC1=O)Oc1ccccc1Cl (stereo not drawn) [Example 279, 2-Chlorophenyl [2-(bicyclo[2.2.1]hept-5-en-2-ylamino)-4-oxo-4,5-dihydro-1,3-thiazol-5-yl]acetate]",211
7,"COc1ccccc1OC(=O)CC1SC(NC2CC3C=CC2C3)=NC1=O (stereo not drawn) [Example 281, 2-Methoxyphenyl [2-(bicyclo[2.2.1]hept-5-en-2-ylamino)-4-oxo-4,5-dihydro-1,3-thiazol-5-yl]acetate]",175 to 176
8,"O=C(CC1SC(NC2CC3C=CC2C3)=NC1=O)Oc1cccc(N2CCOCC2)c1 (stereo not drawn) [Example 282, 3-Morpholin-4-ylphenyl [2-(bicyclo[2.2.1]hept-5-en-2-ylamino)-4-oxo-4,5-dihydro-1,3-thiazol-5-yl]acetate]",203 to 204
9,"O=C(CC1SC(NC2CC3C=CC2C3)=NC1=O)c1ccc(Cl)cc1 (stereo not drawn) [Example 283, 2-(Bicyclo[2.2.1]hept-5-en-2-ylamino)-5-[2-(4-chlorophenyl)-2-oxoethyl]-1,3-thiazol-4(5H)-one]",244 to 245

# More lines, now with the values ahead:
row,melting point [°C],Compound
1,201 to 202,"Cc1c(Cl)cccc1NC(=O)CC1SC(NC2CC3C=CC2C3)=NC1=O (stereo not drawn) [Example 73, 2-[2-(Bicyclo[2.2.1]hept-5-en-2-ylamino)-4-oxo-4,5-dihydro-1,3-thiazol-5-yl]-N-(3-chloro-2-methylphenyl)acetamide]"
2,206 to 207,"O=C(CC1SC(NC2CC3C=CC2C3)=NC1=O)NCc1ccccc1 (stereo not drawn) [Example 74, N-Benzyl-2-[2-(bicyclo[2.2.1]hept-5-en-2-ylamino)-4-oxo-4,5-dihydro-1,3-thiazol-5-yl]acetamide]"
3,216 to 217,"O=C(CC1SC(NC2CC3C=CC2C3)=NC1=O)Nc1ccccc1 (stereo not drawn) [Example 99, 2-[2-(Bicyclo[2.2.1]hept-5-en-2-ylamino)-4-oxo-4,5-dihydro-1,3-thiazol-5-yl]-N-phenylacetamide]"
4,222 to 223,"O=C(CC1SC(NC2CC3C=CC2C3)=NC1=O)Nc1ccc2cn[nH]c2c1 (stereo not drawn) [Example 100, 2-[2-(Bicyclo[2.2.1]hept-5-en-2-ylamino)-4-oxo-4,5-dihydro-1,3-thiazol-5-yl]-N-1H-indazol-6-ylacetamide]"
5,215,"O=C(CC1SC(NC2CC3C=CC2C3)=NC1=O)Nc1ccc(F)cc1 (stereo not drawn) [Example 101, 2-[2-(Bicyclo[2.2.1]hept-5-en-2-ylamino)-4-oxo-4,5-dihydro-1,3-thiazol-5-yl]-N-(4-fluorophenyl)acetamide]"
6,187 to 188,"CCNC(=O)CC1SC(NC2CC3C=CC2C3)=NC1=O (stereo not drawn) [Example 104, 2-[2-(Bicyclo[2.2.1]hept-5-en-2-ylamino)-4-oxo-4,5-dihydro-1,3-thiazol-5-yl]-N-ethylacetamide]"
7,205,"CNC(=O)CC1SC(NC2CC3C=CC2C3)=NC1=O (stereo not drawn) [Example 105, 2-[2-(Bicyclo[2.2.1]hept-5-en-2-ylamino)-4-oxo-4,5-dihydro-1,3-thiazol-5-yl]-N-methylacetamide]"
8,232,"O=C(O)CC1SC(NC2CC3C=CC2C3)=NC1=O (stereo not drawn) [Example 288, [2-(Bicyclo[2.2.1]hept-5-en-2-ylamino)-4-oxo4,5-dihydro-1,3-thiazol-5-yl]acetic acid]"

# Biological target: T1, human 11-β-hydroxysteroid dehydrogenase type-1 enzyme (11-β-HSD1) (Homo sapiens, UniProt P28845)
# T1 construct: made in house; host or cells: Pichia pastoris
# Test: Scintillation Proximity Assay (11-β-HSD1 enzyme assay)
# Type: biochemical
# Settings: calculated from IC50 (Cheng Prushoff); tritiated Cortisone/NADPH 175 nM/181 μM; enzyme expressed in Pichia pastoris
# Excerpt: Scintillation Proximity Assay
# [1,2(n)-^3H]-cortisone was purchased from Amersham Pharmacia Biotech. Anti-cortisol monoclonal mouse antibody, clone 6D6.7 was obtained from Immunotech and Scintillation proximity assay (SPA) beads coated with monoclonal antimouse antibodies were from Amersham Pharmacia Biotech. NADPH, tetrasodium salt was from Calbiochem and glucose-6-phosphate (G-6-P) was supplied by Sigma. The human 11-β-hydroxysteroid dehydrogenase type-1 enzyme (11-β-HSD1) was expressed in Pichia pastoris. 18-β-glycyrrhetinic acid (GA) was obtained from Sigma. The serial dilutions of the compounds were performed on a Tecan Genesis RSP 150. Compounds to be tested were dissolved in DMSO (1 mM) and diluted in 50 mM Tris-HCl, pH 7.2 containing 1 mM EDTA.
# The multiplication of plates was done on a WallacQuadra. The amount of the product [^3H]-cortisol, bound to the beads was determined in a Packard, Top Count microplate liquid scintillation counter.
# The 11-β-HSD1 enzyme assay was carried out in 96 well microtiter plates (Packard, Optiplate) in a total well volume of 220 μL and contained 30 mM Tris-HCl, pH 7.2 with 1 mM EDTA, a substrate mixture tritiated Cortisone/NADPH (175 nM/181 μM), G-6-P (1 mM) and inhibitors in serial dilutions (9 to 0.15 μM). Reactions were initiated by the addition of human 11-β-HSD1, either as Pichia pastoris cell homogenate or microsomes prepared from Pichia pastoris (the final amount of enzyme used was varied between 0.057 to 0.11 mg/mL). Following mixing, the plates were shaken for 30 to 45 minutes at room temperature. The reactions were terminated with 10 μL 1 mM GA stop solution. Monoclonal mouse antibody was then added (10 μL of 4 μM) followed by 100 μL of SPA beads (suspended according to the manufacturers instructions). Appropriate controls were set up by omitting the 11-β-HSD1 to obtain the non-specific binding (NSB) value.
# The plates were covered with plastic film and incubated on a shaker for 30 minutes, at room temperature, before counting. The amount of [^3H]-cortisol, bound to the beads was determined in a microplate liquid scintillation counter. The calculation of the Ki values for the inhibitors was performed by use of Activity Base. The Ki value is calculated from IC50 and the Km value is calculated using the Cheng Prushoff equation (with reversible inhibition that follows the Michaelis-Menten equation): Ki=IC50(1+[S]/Km) [Cheng, Y. C.; Prushoff, W. H. Biochem. Pharmacol. 1973, 22, 3099-3108]. The IC50 is measured experimentally in an assay wherein the decrease of the turnover of cortisone to cortisol is dependent on the inhibition potential of each substance. The Ki values of the compounds of the present invention for the 11-β-HSD1 enzyme lie typically between about 10 nM and about 10 μM.
# T1 sequence (P28845 whole entry): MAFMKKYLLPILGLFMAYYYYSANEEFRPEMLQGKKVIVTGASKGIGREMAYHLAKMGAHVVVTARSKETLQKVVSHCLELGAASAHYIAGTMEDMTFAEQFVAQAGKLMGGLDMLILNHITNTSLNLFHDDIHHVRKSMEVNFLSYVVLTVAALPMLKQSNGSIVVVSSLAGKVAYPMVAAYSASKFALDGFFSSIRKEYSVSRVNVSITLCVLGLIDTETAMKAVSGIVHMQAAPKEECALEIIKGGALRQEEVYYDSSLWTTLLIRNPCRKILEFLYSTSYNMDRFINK
row,Ki [nM],Compound
1,709,"Cc1c(Cl)cccc1NC1=NC(=O)C(CC(=O)N(C)c2ccccc2)S1 (stereo not drawn) [Example 109, 2-{2-[(3-chloro-2-methylphenyl)amino]-4-oxo-4,5-dihydro-1,3-thiazol-5-yl}-N-methyl-N-phenylacetamide]"
2,384,"CCC(C)CNC1=NC(=O)C(CC(=O)N2CCCc3ccccc32)S1 (stereo not drawn) [Example 125, 5-[2-(3,4-dihydroquinolin-1(2H)-yl)-2-oxoethyl]-2-[(2-methylbutyl)amino]-1,3-thiazol-4(5H)-one]"
3,559,"O=C(NCCC1SC(NC2CCCCCC2)=NC1=O)Nc1ccccc1Cl (stereo not drawn) [Example 261, N-(2-chlorophenyl)-N′-{2-[2-(cycloheptylamino)-4-oxo-4,5-dihydro-1,3-thiazol-5-yl]ethyl}urea]"
4,535,"O=C1N=C(NC2(c3ccc(Cl)cc3)CCC2)SC1CCNc1ccccc1 (stereo not drawn) [Example 335, 5-(2-anilinoethyl)-2-{[1-(4-chlorophenyl)cyclobutyl]amino}-1,3-thiazol-4(5H)-one hydrobromide]"
